System: collagen 1 (COL1)
Assay: WI-38 collagen 1 inhibition assay
Format: cell-based, human
Details: Cellular EC50, WI-38 cells; values are classes of LogEC50
Description: All compounds were profiled for cellular potency in inhibition of collagen 1 (COL1) protein translation using a phenotypic screening platform.
WI-38 cells (ATCC® CCL-75™) were maintained in MEM EAGLE (NEAA) W. GLUTAMIN (Biological Industries, Cat. 06-1040-15-1A) containing 10% fetal bovine serum (FBS) and 1% Penicillin-Streptomycin Solution. To synchronize the cells (cell cycle synchronization) prior to induction of collagen synthesis, the cells were starved using DMEM-low glucose supplemented with 0.25% FBS for two hours and then without FBS for 24 hours. To induce collagen synthesis, the cells were treated with a collagen induction cocktail for the indicated time. Compounds were added with induction.
Cells in 96-well or 384-well plates were fixed for 20 min in 4% paraformaldehyde (PFA, ENCO, Cat. sc-281692). Following two washes with 1×PBS, cells were treated with hydrogen peroxide (Acros, Cat: 7722-84-1) for 10 minutes and then washed twice with 1×PBS. Cells were then incubated over-night at 4° C. with Anti-Collagen I (Sigma-Aldrich, Cat: C 2456) antibody and washed three times with 1×PBS. Cells were then incubated with a suitable secondary fluorescently-tagged antibody and nuclei stained with DAPI, for 1 hour, and then washed 3 times with 1×PBS.
Cell images were taken with Operetta (Perkin Elmer, USA), a wide-field fluorescence microscope at 20× magnification. After acquisition, the images were transferred to Columbus software (Perkin-Elmer) for image analysis. In Columbus, cells were identified by their nucleus, using the “Find Nuceli” module and cytoplasm was detected based on the secondary antibody channel. Subsequently, the fluorescent signal was enumerated in the identified cell region. Data was exported to a data analysis and visualization software, Tibco Spotfire, USA.

COCc1ccccc1-c1csc(NC(=O)c2ccc(N3CCN(C(C)=O)CC3)cn2)n1 [compound 469, 5-(4-acetylpiperazin-1-yl)-N-(4-(2-(methoxymethyl)phenyl)thiazol-2-yl)picolinamide]
COL1 Efficacy (LogEC50): +++ (+++: <−6)

O=C(Nc1nc(-c2ccccc2Cl)cs1)c1ccc(N2CCOCC2)cc1Cl [Compound 409, 2-chloro-N-(4-(2-chlorophenyl)thiazol-2-yl)-4-morpholinobenzamide]
COL1 Efficacy (LogEC50): ++ (++: −5 to −6)

O=C(Nc1nc(-c2ccccc2Cl)cs1)C1CC(N2CCOCC2)C1 (stereo not shown) [Compound 421, (1s,3s)-N-(4-(2-chlorophenyl)thiazol-2-yl)-3-morpholinocyclobutane-1-carboxamide]
COL1 Efficacy (LogEC50): + (+: >−5)

CN(C)CC(=O)N1CCN(c2ccc(C(=O)Nc3nc(-c4ccccc4Cl)cs3)nc2)CC1 [Compound 443, N-(4-(2-chlorophenyl)thiazol-2-yl)-5-(4-(dimethylglycyl)piperazin-1-yl)picolinamide]
COL1 Efficacy (LogEC50): +++ (+++: <−6)

Cc1ncc(C(=O)Nc2nc(-c3ccccc3Cl)cs2)cn1 [compound 320, N-[4-(2-chlorophenyl)thiazol-2-yl]-2-methyl-pyrimidine-5-carboxamide]
COL1 Efficacy (LogEC50): ++ (++: −5 to −6)

C[C@H]1COCCN1c1ccc(C(=O)Nc2nc(-c3ccccc3Cl)cs2)nc1 [compound 464, (S)—N-(4-(2-chlorophenyl)thiazol-2-yl)-5-(3-methylmorpholino)picolinamide]
COL1 Efficacy (LogEC50): +++ (+++: <−6)

CN1CCC(C(=O)N2CCN(c3ccc(C(=O)Nc4nc(-c5ccccc5Cl)cs4)nc3)CC2)CC1 [Compound 483, N-(4-(2-chlorophenyl)thiazol-2-yl)-5-(4-(1-methylpiperidine-4-carbonyl)piperazin-1-yl)picolinamide]
COL1 Efficacy (LogEC50): +++ (+++: <−6)

C#CCCC1(CCN2CCN(c3ccc(C(=O)Nc4nc(-c5ccccc5Cl)cs4)cc3)CC2)N=N1 [compound 484, 4-(4-(2-(3-(but-3-yn-1-yl)-3H-diazirin-3-yl)ethyl)piperazin-1-yl)-N-(4-(2-chlorophenyl)thiazol-2-yl)benzamide hemiformate]
COL1 Efficacy (LogEC50): +++ (+++: <−6)

O=C(Nc1nc(-c2ccccn2)cs1)c1ccc(N2CCOCC2)cc1 [Compound 370, 4-morpholino-N-[4-(2-pyridyl)thiazol-2-yl]benzamide]
COL1 Efficacy (LogEC50): + (+: >−5)

COc1ccc(C(=O)Nc2nc(-c3ccccc3F)cs2)cc1 [Compound 336, N-[4-(2-fluorophenyl)thiazol-2-yl]-4-methoxy-benzamide]
COL1 Efficacy (LogEC50): ++ (++: −5 to −6)

CN(C)Cc1ccccc1-c1csc(NC(=O)c2ccc(N3CCN(S(C)(=O)=O)CC3)cn2)n1 [Compound 460, N-(4-(2-((dimethylamino)methyl)phenyl)thiazol-2-yl)-5-(4-(methylsulfonyl)piperazin-1-yl)picolinamide hemiformate]
COL1 Efficacy (LogEC50): ++ (++: −5 to −6)

Cc1ccc(C(=O)Nc2nc(-c3cccc4c3OCCO4)cs2)cn1 [Compound 342, N-[4-(2,3-dihydro-1,4-benzodioxin-5-yl)thiazol-2-yl]-6-methyl-pyridine-3-carboxamide]
COL1 Efficacy (LogEC50): ++ (++: −5 to −6)

O=C(Nc1nc(-c2ccccc2Cl)cs1)c1ccc(N2CCOCC2)nn1 [compound 366, N-[4-(2-chlorophenyl)thiazol-2-yl]-6-morpholino-pyridazine-3-carboxamide]
COL1 Efficacy (LogEC50): +++ (+++: <−6)

CS(=O)(=O)N1CCC(Oc2ccc(C(=O)Nc3nc(-c4ccccc4Cl)cs3)nc2)CC1 [compound 438, N-(4-(2-chlorophenyl)thiazol-2-yl)-5-((1-(methylsulfonyl)piperidin-4-yl)oxy)picolinamide]
COL1 Efficacy (LogEC50): +++ (+++: <−6)

CN1CCC2(CCN(c3ccc(C(=O)Nc4nc(-c5ccccc5Cl)cs4)nc3)CC2)C1=O [compound 452, N-(4-(2-chlorophenyl)thiazol-2-yl)-5-(2-methyl-1-oxo-2,8-diazaspiro[4.5]decan-8-yl)picolinamide]
COL1 Efficacy (LogEC50): +++ (+++: <−6)

CC(=O)N1CC2(C1)CN(c1ccc(C(=O)Nc3nc(-c4ccccc4Cl)cs3)nc1)C2 [compound 449, 5-(6-acetyl-2,6-diazaspiro[3.3]heptan-2-yl)-N-(4-(2-chlorophenyl)thiazol-2-yl)picolinamide]
COL1 Efficacy (LogEC50): +++ (+++: <−6)

O=C(Nc1nc(-c2ccccc2Cl)co1)c1ccc(N2CCOCC2)cc1 [Compound 368, N-[4-(2-chlorophenyl)oxazol-2-yl]-4-morpholino-benzamide]
COL1 Efficacy (LogEC50): ++ (++: −5 to −6)

COc1cc(OC)cc(-c2csc(NC(=O)c3ccc(N4CCOCC4)cc3)n2)c1 [compound 353, N-[4-(3,5-dimethoxyphenyl)thiazol-2-yl]-4-morpholino-benzamide]
COL1 Efficacy (LogEC50): +++ (+++: <−6)

CS(=O)(=O)N1CCN(C(=O)[C@H]2C[C@@H](C(=O)Nc3nc(-c4ccccc4Cl)cs3)C2)CC1 [compound 429]
COL1 Efficacy (LogEC50): + (+: >−5)

Cc1ncccc1-c1csc(NC(=O)c2ccc(N3CCOCC3)cn2)n1 [compound 371, N-[4-(2-methyl-3-pyridyl)thiazol-2-yl]-5-morpholino-pyridine-2-carboxamide]
COL1 Efficacy (LogEC50): ++ (++: −5 to −6)

Cc1ccc(C(=O)Nc2nc(-c3cncnc3C)cs2)cn1 [Compound 347, 6-methyl-N-[4-(4-methylpyrimidin-5-yl)thiazol-2-yl]pyridine-3-carboxamide]
COL1 Efficacy (LogEC50): ++ (++: −5 to −6)

O=C(Nc1nc(-c2ccccc2Cl)cs1)c1ccc(N2CCNCC2)cc1 [Compound 334, N-(4-(2-chlorophenyl)thiazol-2-yl)-4-(piperazin-1-yl)benzamide]
COL1 Efficacy (LogEC50): +++ (+++: <−6)

CC(=O)N1CCN(c2ccc(C(=O)Nc3nc(-c4cccnc4CO)cs3)nc2)CC1 [compound 472, 5-(4-acetylpiperazin-1-yl)-N-(4-(2-(hydroxymethyl)pyridin-3-yl)thiazol-2-yl)picolinamide]
COL1 Efficacy (LogEC50): ++ (++: −5 to −6)

O=C(Nc1nc(-c2ccccc2Cl)cs1)c1ccc(N2CCC(O)CC2)cn1 [Compound 446, N-(4-(2-chlorophenyl)thiazol-2-yl)-5-(4-hydroxypiperidin-1-yl)picolinamide]
COL1 Efficacy (LogEC50): +++ (+++: <−6)

CC(=O)N1CCN(c2csc(C(=O)Nc3nc(-c4ccccc4Cl)cs3)c2)CC1 [Compound 462, 4-(4-acetylpiperazin-1-yl)-N-(4-(2-chlorophenyl)thiazol-2-yl)thiophene-2-carboxamide]
COL1 Efficacy (LogEC50): ++ (++: −5 to −6)

O=C(Nc1nc(-c2ccccc2Cl)cs1)c1ccc(N2CCC3(CC2)COC3)cn1 [Compound 448, N-(4-(2-chlorophenyl)thiazol-2-yl)-5-(2-oxa-7-azaspiro[3.5]nonan-7-yl)picolinamide]
COL1 Efficacy (LogEC50): +++ (+++: <−6)

Cc1ccc(C(=O)Nc2nc(-c3ccccc3Cl)cs2)cn1 [compound 318, N-[4-(2-chlorophenyl)thiazol-2-yl]-6-methyl-pyridine-3-carboxamide]
COL1 Efficacy (LogEC50): +++ (+++: <−6)

CS(=O)(=O)N1CCN(C(=O)[C@H]2C[C@H](C(=O)Nc3nc(-c4ccccc4Cl)cs3)C2)CC1 [Compound 430, (1r,3r)-N-(4-(2-chlorophenyl)thiazol-2-yl)-3-(4-(methylsulfonyl)piperazine-1-carbonyl)cyclobutane-1-carboxamide]
COL1 Efficacy (LogEC50): + (+: >−5)

O=C(Nc1nc(-c2ccccc2Cl)cs1)c1ccc(N2CCN(C(=O)CO)CC2)cn1 [Compound 445, N-(4-(2-chlorophenyl)thiazol-2-yl)-5-(4-(2-hydroxyacetyl)piperazin-1-yl)picolinamide]
COL1 Efficacy (LogEC50): +++ (+++: <−6)

Cc1ncccc1-c1csc(NC(=O)c2cnc(N3CCOCC3)cn2)n1 [compound 372, N-[4-(2-methyl-3-pyridyl)thiazol-2-yl]-5-morpholino-pyrazine-2-carboxamide]
COL1 Efficacy (LogEC50): + (+: >−5)

O=C(Nc1nc(-c2ccccc2Cl)cs1)C1CC(C(=O)N2CCOCC2)C1 (stereo not shown) [compound 426]
COL1 Efficacy (LogEC50): − (−: inactive)

COc1ccc(C(=O)Nc2nc(-c3cc(C)cc(C)c3)cs2)cc1 [Compound 305, N-(4-(3,5-dimethylphenyl)thiazol-2-yl)-4-methoxybenzamide]
COL1 Efficacy (LogEC50): ++ (++: −5 to −6)

O=C(Nc1nc(-c2ccccc2Cl)cs1)c1ccc(C(=O)N2CCNCC2)cn1 [compound 451, N-(4-(2-chlorophenyl)thiazol-2-yl)-5-(piperazine-1-carbonyl)picolinamide]
COL1 Efficacy (LogEC50): ++ (++: −5 to −6)

COc1ccc(C(=O)Nc2nc(-c3ccc(C)cc3C)cs2)cc1 [Compound 301, N-(4-(2,4-dimethylphenyl)thiazol-2-yl)-4-methoxybenzamide]
COL1 Efficacy (LogEC50): +++ (+++: <−6)

From patent US20230212131A1, “COLLAGEN 1 TRANSLATION INHIBITORS AND METHODS OF USE THEREOF” (Anima Biotech Inc., priority 2020, published 2023)
